From patent publication US11547681B2, “N-acylethanolamide derivatives and uses thereof” (ELIEM THERAPEUTICS, INC., priority 2016, dated 2023)

What was measured:
[1] = in vitro; conditions: male, Sprague-Dawley, rat; for microsomal CLint at 1 μM: s9, CLint; for half-life at 1 μM: s9, Half-life
Experimental: The reaction mixture, minus cofactors, was prepared as described below. The test article was added into the reaction mixture at a final concentration of 1 μM. […] An aliquot of the reaction mixture (without cofactor cocktail) was equilibrated in a shaking water bath at 37° C. for 3 minutes. The reaction was initiated by the addition of cofactor cocktail, and the mixture was incubated in a shaking water bath at 37° C. Aliquots (100 μL) were withdrawn at 0, 10, 20, 30, and 60 minutes. All samples were immediately combined with 400 uL of icecold 50/50 acetonitrile/H2O containing 0.1% formic acid and internal standard to terminate the reaction. The samples were then mixed and centrifuged to precipitate proteins. Calibration standards were prepared in matched matrix. All samples and standards were assayed by LC-MS/MS using electrospray ionization for both the dosed prodrug I-9 and the expected drug (PEA). Analytical conditions are outlined in Appendix 4-1. The test article concentration at each time point was compared to the test article concentration at time 0 to determine the percent remaining at each time point. Half-lives were calculated using GraphPad software, fitting to single-phase exponential decay equation.
(§1) Reaction mixture, minus cofactors, was prepared as described below. Test article was added into the reaction mixture at a final concentration of 1 μM. […] An aliquot of the reaction mixture (without cofactor cocktail) was equilibrated in a shaking water bath at 37° C. for 3 minutes. The reaction was initiated by the addition of cofactor cocktail, and the mixture was incubated in a shaking water bath at 37° C. Aliquots (100 μL) were withdrawn at 0, 10, 20, 30, and 60 minutes. Test article samples were immediately combined with 300 μL of ice-cold acetonitrile containing 1% formic acid. Control samples were immediately combined with 400 μL of ice-cold 50/50 acetonitrile (ACN)/dH2O containing 0.1% formic acid and internal standard to terminate the reaction. Samples were then mixed and centrifuged to precipitate proteins. Calibration standards were prepared in matched matrix. Samples and standards were assayed by LC-MS/MS using electrospray ionization for both the dosed prodrug and the expected drug (PEA). Analytical conditions are outlined in Appendix 8-1. Test article concentration at each time point was compared to test article concentration at time 0 to determine the percent remaining at each time point. Halflives were calculated using GraphPad software, fitting to a single-phase exponential decay equation.
as §1, with “for 5” for “for 3”, “minutes. Reaction” for “minutes. The reaction”, “and” for “and the”, “both” for “both the”, “Appendix 10-1.” for “Appendix 8-1.”
Reaction mixture, minus cofactors, was prepared as described below.

[2] = in vitro; conditions: male, Beagle, dog
Experimental: as §1
as §1, with “for 5” for “for 3”, “minutes. Reaction” for “minutes. The reaction”, “and” for “and the”, “both” for “both the”, “Appendix 10-1.” for “Appendix 8-1.”
Reaction mixture, minus cofactors, was prepared as described below. Test article was added into the reaction mixture at a final concentration of 1 μM. […] An aliquot of the reaction mixture (without cofactor cocktail) was equilibrated in a shaking water bath at 37° C. for 3 minutes. Reaction was initiated by the addition of cofactor cocktail, and the mixture was incubated in a shaking water bath at 37° C. Aliquots (100 μL) were withdrawn at 0, 10, 20, 30, and 60 minutes. Test article samples were immediately combined with 300 μL of ice-cold acetonitrile containing 1% formic acid. Control samples were immediately combined with 400 μL of ice-cold 50/50 acetonitrile (ACN)/dH2O containing 0.1% formic acid and internal standard to terminate the reaction. Samples were then mixed and centrifuged to precipitate proteins. Calibration standards were prepared in matched matrix. Samples and standards were assayed by LC-MS/MS using electrospray ionization for both dosed prodrug and expected drug (PEA). Analytical conditions are outlined in Appendix 13-1. Test article concentration at each time point was compared to test article concentration at time 0 to determine the percent remaining at each time point. Halflives were calculated using GraphPad software, fitting to a single-phase exponential decay equation.

## CCCCCCCCCCCCCCCC(=O)NCCOC(=O)CCC(=O)OC(CO)CO [Compound I-8]
[1]; 0 min, 1 μM
  Measured concentration of PEA (analyte): 0.022 µM
[1]; 10 min, 1 μM
  Measured concentration of PEA (analyte): 0.22 µM
[1]; 20 min, 1 μM
  Measured concentration of PEA (analyte): 0.34 µM
[1]; 30 min, 1 μM
  Measured concentration of PEA (analyte): 0.42 µM
[1]; 60 min, 1 μM
  Measured concentration of PEA (analyte): 0.45 µM
[1]; s9, 0 h, 1 μM
  % Remaining of Initial: 100%
[1]; s9, 10 min, 1 μM
  % Remaining of Initial: 58%
[1]; s9, 20 min, 1 μM
  % Remaining of Initial: 37%
[1]; s9, 0.5 h, 1 μM
  % Remaining of Initial: 22%
[1]; s9, 1 h, 1 μM
  % Remaining of Initial: 6.2%
[1]
  microsomal CLint at 1 μM: 50.3 µL/min/mg
  half-life at 1 μM: 14 min
[2]; 0 min, 1 μM
  Measured concentration of PEA (analyte): 0.33 µM
[2]; 10 min, 1 μM
  Measured concentration of PEA (analyte): 0.71 µM
[2]; 20 min, 1 μM
  Measured concentration of PEA (analyte): 0.81 µM
[2]; 30 min, 1 μM
  Measured concentration of PEA (analyte): 0.67 µM
[2]; 60 min, 1 μM
  Measured concentration of PEA (analyte): 0.81 µM
[2]; s9, 0 h, 1 μM
  % Remaining of Initial: 100%
[2]; s9, 10 min, 1 μM
  % Remaining of Initial: <1.0%
[2]; s9, 20 min, 1 μM
  % Remaining of Initial: <1.0%
[2]; s9, 0.5 h, 1 μM
  % Remaining of Initial: <1.0%
[2]; s9, 1 h, 1 μM
  % Remaining of Initial: <1.0%
[2]; s9, CLint
  microsomal CLint at 1 μM: > 69.3 µL/min/mg
[2]; s9, Half-life
  half-life at 1 μM: < 10 min

## CCCCCCCCCCCCCCCC(=O)NCCOC(=O)CCC(=O)OCC(O)CO (stereo not drawn) [Compound I-9]
[1]; 0 min, 1 μM
  Concentration (μM) of analyte PEA, 0 min: 0.034 µM
  Concentration of analyte I-9: 770 nM
  Concentration of analyte PEA: 31 nM
[1]; 10 min, 1 μM
  Concentration (μM) of analyte PEA, 10 min: 0.22 µM
  Concentration of analyte I-9: 910 nM
  Concentration of analyte PEA: 88 nM
[1]; 20 min, 1 μM
  Concentration (μM) of analyte PEA, 20 min: 0.31 µM
  Concentration of analyte I-9: 680 nM
  Concentration of analyte PEA: 130 nM
[1]; 30 min, 1 μM
  Concentration (μM) of analyte PEA, 30 min: 0.36 µM
  Concentration of analyte I-9: 580 nM
  Concentration of analyte PEA: 160 nM
[1]; 60 min, 1 μM
  Concentration (μM) of analyte PEA, 60 min: 0.39 µM
  Concentration of analyte I-9: 380 nM
  Concentration of analyte PEA: 240 nM
[1]; s9, 0 h, 1 μM
  % Remaining of Initial (n = 1): 100%
  % Remaining of Initial (n = 1), 0 min: 100%
[1]; s9, 10 min, 1 μM
  % Remaining of Initial (n = 1): 119%
  % Remaining of Initial (n = 1), 10 min: 45%
[1]; s9, 20 min, 1 μM
  % Remaining of Initial (n = 1): 88%
  % Remaining of Initial (n = 1), 20 min: 26%
[1]; s9, 0.5 h, 1 μM
  % Remaining of Initial (n = 1): 75%
  % Remaining of Initial (n = 1), 30 min: 15%
[1]; s9, 1 h, 1 μM
  % Remaining of Initial (n = 1): 49%
  % Remaining of Initial (n = 1), 60 min: 3.6%
[1]
  microsomal CLint at 1 μM: 125 µL/min/mg
  half-life at 1 μM: 55 min
[2]; 0 min, 1 μM
  Concentration (μM) of analyte PEA, 0 min: 0.26 µM
[2]; 10 min, 1 μM
  Concentration (μM) of analyte PEA, 10 min: 0.48 µM
[2]; 20 min, 1 μM
  Concentration (μM) of analyte PEA, 20 min: 0.47 µM
[2]; 30 min, 1 μM
  Concentration (μM) of analyte PEA, 30 min: 0.46 µM
[2]; 60 min, 1 μM
  Concentration (μM) of analyte PEA, 60 min: 0.45 µM
[2]; s9, 0 h, 1 μM
  % Remaining of Initial (n = 1), 0 min: 100%
[2]; s9, 10 min, 1 μM
  % Remaining of Initial (n = 1), 10 min: <1.0%
[2]; s9, 20 min, 1 μM
  % Remaining of Initial (n = 1), 20 min: <1.0%
[2]; s9, 0.5 h, 1 μM
  % Remaining of Initial (n = 1), 30 min: <1.0%
[2]; s9, 1 h, 1 μM
  % Remaining of Initial (n = 1), 60 min: <1.0%
[2]; s9, CLint (mL/min/mg protein)
  microsomal CLint at 1 μM: > 691 µL/min/mg
[2]; s9, Half-life (min)
  half-life at 1 μM: < 1 min
